{"source": "paper PMC10535741", "about": "“Styrylpyridinium Derivatives for Fluorescent Cell Imaging” (Pharmaceuticals, 2023)", "assay_in_all_cases": "in vitro", "type_in_all_cases": "cell-based", "key": {"[1]": {"system": "A-431 (human epidermoid carcinoma)", "text": "(§1) For selected compounds, 6a–6f, we performed a determination of the cytotoxicity in a wider variety of cancer and non-cancerous cell lines (see Table S2, Supplementary Materials) in order to learn the characteristic features of selectivity or the similarity of biological properties.\n(§2) The HT-1080 (human connective tissue fibrosarcoma, ATCC® CCL-121™), MH-22A (mouse hepatocarcinoma, ECACC Cat. No. 96121721), A-549 (human lung carcinoma, ATCC® CCL-185™), NIH3T3 (Swiss Albino mouse embryo fibroblast, ECACC Cat. No. 93061524), Hek293 (human embryonic kidney, ATCC® CRL-1573™), BHK-21 (Syrian hamster kidney, ATCC® CCL-10™), A-431 (human epidermoid carcinoma, ATCC® CRL-1555™), Saos-2 (human osteosarcoma, ATCC® HTB-85™), HeLa (human epitheloid cervix carcinoma, ATCC® CCL-2™), U937 (human myeloid leukaemia, ATCC® CRL-1593.2™), C6 (rat glioma, ATCC® CCL-107™), and B16-F10 (murine melanoma, ATCC® CRL-6475™) cell lines were obtained from the American Type Culture Collection (ATCC) and European Collection of Authenticated Cell Cultures (ECACC).\n(§3) HT-1080, MH-22A, A-549, NIH3T3, BHK-21, A-431, HeLa, and B16-F10 cells were cultured in Dulbecco’s Modified Eagle’s Medium (DMEM) with 2 mM glutamine and 10% foetal bovine serum (FBS). Hek293 cells were cultured in Eagle’s Minimum Essential Medium with 10% foetal bovine serum. U937 cells were cultured in RPMI-1640 Medium with 2 mM glutamine and 10% foetal bovine serum. C6 cells were cultured in Ham’s F12 Medium with 2 mM glutamine and 10% foetal bovine serum. Saos-2 cells were cultured in McCoy’s 5a Medium with 2 mM glutamine and 10% foetal bovine serum. The cells were incubated at 37 °C with 5% CO2, 95% air, and complete humidity. Once ~90% confluence was reached, they were detached using 0.05% trypsin/EDTA and counted. The cells were plated at optimally determined densities for the logarithmic phase of growth. These cells were then suspended at a concentration of 4000 cells/well for HT-1080, MH-22A, A-549, NIH3T3, BHK-21, A-431, HeLa, B16-F10, Hek293, and Saos-2 cells and a concentration of 9000 cells/well for U937, C6, Hek293, and GM08402 cells and added onto a 96-well plate. For background absorption, some wells remained cell free, i.e., as a blank control. Cells were incubated for 72 h at 37 °C and 5% CO2 where they were exposed to a media containing serial dilutions of the investigated compounds (n = 3). Cell viability was measured using the 3-(4,5-dimethylthiazol-2-yl)-2,5-diphenyl-tetrazolium bromide (MTT) assay. In brief, after incubating with compounds, the culture medium was removed and fresh medium with 0.2 mg/mL MTT was added to each well of the plate. After incubation (3 h, 37 °C, 5% CO2), the medium with MTT solution was removed and replaced with 200 µL DMSO and 25 µL Sorenson’s glycine buffer (glycine 0.1 M, NaCl 0.1 M, pH: 10.5 with 0.1 M NaOH). The plate was shaken for 15 min at room temperature and the optical density (OD) of the wells was determined using a multichannel spectrophotometer (Thermo Scientific Multiskan EX) at 540 nm. The quantity of the control cells was taken in calculations as 100%. The IC50 value was calculated using the program Graph Pad Prism® 3.0.\n(§4) The HT-1080 (human connective tissue fibrosarcoma, ATCC® CCL-121™), MH-22A (mouse hepatocarcinoma, ECACC Cat.No. 96121721), A-549 (human lung carcinoma, ATCC® CCL-185™), NIH 3T3 (mouse Swiss Albino embryo fibroblast, ECACC Cat.No. 93061524), Hek293 (human embryonic kidney, ATCC® CRL-1573™), BHK-21 (hamster Syrian kidney, ATCC® CCL-10™), A-431 (human epidermoid carcinoma, ATCC® CRL-1555™), Saos-2 (human oste osarcoma, ATCC® HTB-85™) HeLa (human epitheloid cervix carcinoma, ATCC® CCL-2™), U937 (human myeloid leukaemia, ATCC® CRL-1593.2™), C6 (rat glioma, ATCC® CCL-107™), B16-F10 (murine melanoma, ATCC® CRL-6475™) cell lines were obtained from American Type Culture Collection (ATCC) and European Collection of Authenticated Cell Cultures […]\n(§5) Table S2. […]"}, "[2]": {"system": "HeLa (human epitheloid cervix carcinoma)", "text": "as §1, §2, §3, §4, §5"}, "[3]": {"system": "Hek293 (human embryonic kidney)", "text": "as §1, §2, §3, §4, §5"}, "[4]": {"system": "A-549 (human lung carcinoma)", "text": "as §1, §2, §3, §4, §5"}, "[5]": {"system": "Saos-2 (human osteosarcoma)", "text": "as §1, §2, §3, §4, §5"}, "[6]": {"system": "U937 (human myeloid leukaemia)", "text": "as §1, §2, §3, §4, §5"}}}
{"smiles": "CCCCCCCCCCCCCCCC[n+]1ccc(C=Cc2cc(OC)c(OC)c(OC)c2)cc1.[Br-]", "note": "[Compound 6b]", "values": [{"measurement": "Cytotoxicity IC50 A-431", "setting": "[1]", "value": 1.10, "unit": "µg/mL"}, {"measurement": "Cytotoxicity IC50 HeLa", "setting": "[2]", "value": 0.82, "unit": "µg/mL"}, {"measurement": "Cytotoxicity IC50 Hek-293", "setting": "[3]", "value": 0.38, "unit": "µg/mL"}, {"measurement": "Cytotoxicity IC50 A-549", "setting": "[4]", "value": 0.98, "unit": "µg/mL"}, {"measurement": "Cytotoxicity IC50 Saos-2", "setting": "[5]", "value": 0.60, "unit": "µg/mL"}, {"measurement": "Cytotoxicity IC50 U937", "setting": "[6]", "value": 1.39, "unit": "µg/mL"}]}
